Test [1] concerns the target T1, hTRPV1 (Homo sapiens, UniProt Q8NER1).
T1 construct: expressed in transfected cells
The experiment in a line: Ca2+ fluorometric assay on HEK-293 cells stably expressing hTRPV1 (selectivity). It is filed as cell-based. As to the method: Cells, HEK-293 cells stably expressing rTRPM8 or hTRPV1, were cultured in a monolayer in Earle’s minimum essential medium with Earle’s salts supplemented with 10% fetal calf serum, 1% nonessential amino acids, 2 mM L-glutamine, 100 µg streptomycin/mL, 100 U penicillin/mL, and 0.4 µg/mL puromycin (referred to as Puro-EMEM) and kept at 37 °C in a humidified atmosphere of 5% CO2 in a suitable incubator (STERI-CyCLE CO2 Incubator Hepa Class 100, Thermo Electrón Corporation, Waltham, MA, USA). Cells were stored under liquid nitrogen and used for 15 generations from unfreezing. […]
Briefly human embryonic kidney cell line (HEK) stably transfected with rTRPM8 or hTRPV1 were seeded in 96-well plates at a cell density of 30,000 cells. […] The TRP ion channel activity was measured using POLASTAR plate reader (BMG Labtech, Ortenberg, Germany) setting the excitation wavelength at 485 nm and emission wavelength at 520 nm. The baseline fluorescence was recorded for 3 cycles before the addition of the vehicle, compound at different concentrations, and the antagonist, 10 μM AMTB for TRPM8 and Ruthenium red for TRPV1. Fluorescence intensity was recorded during 7 more cycles and agonist 100 μM menthol for TRPM8 or 10 μM capsaicin for TRPV1 was added. Fluorescence intensity was recorded during 10 more cycles. […]

Test [2] has as its target T2, rat isoform of TRPM8 channels (Rattus norvegicus, UniProt Q8R455).
T2 construct: expressed in transfected cells
The experiment in a line: Ca2+ fluorometric assay, block of menthol-evoked responses in HEK293 cells stably expressing rTRPM8. The settings on record: for potency compared with AMTB: calcium fluorometric assay; for Efficacy: percentage of inhibition of menthol evoked currents at the maximum concentration used (50 µM). It is filed as cell-based. As to the method: The inhibitory activity of the 21 selected compounds over TRPM8 was challenged by Ca^2+ fluorometric assays using HEK293 cells stably expressing the rat isoform of TRPM8 channels. Menthol and AMTB were used as reference agonist and antagonist, respectively. The compounds were initially tested at three different concentrations (50 μM, 5 μM, and 0.5 μM) to assess their ability in blocking 100 μM menthol evoked currents.
Cells, HEK-293 cells stably expressing rTRPM8 or hTRPV1, were cultured in a monolayer in Earle’s minimum essential medium with Earle’s salts supplemented with 10% fetal calf serum, 1% nonessential amino acids, 2 mM L-glutamine, 100 µg streptomycin/mL, 100 U penicillin/mL, and 0.4 µg/mL puromycin (referred to as Puro-EMEM) and kept at 37 °C in a humidified atmosphere of 5% CO2 in a suitable incubator (STERI-CyCLE CO2 Incubator Hepa Class 100, Thermo Electrón Corporation, Waltham, MA, USA). Cells were stored under liquid nitrogen and used for 15 generations from unfreezing.
For fluorometric experiments, HEK-293 cells stably expressing rTRPM8 or hTRPV1 were detached by means of Trypsin/EDTA solution, resuspended in DMEM-10%FCS and seeded at a concentration of 2 × 10^4 cells/mL.
Briefly human embryonic kidney cell line (HEK) stably transfected with rTRPM8 or hTRPV1 were seeded in 96-well plates at a cell density of 30,000 cells. After 2 days the medium was replaced with 100 μL of the dye loading solution Fluo-4 NW supplemented with probenecid 2.5 mM and incubated 1 h at 37 °C. The TRP ion channel activity was measured using POLASTAR plate reader (BMG Labtech, Ortenberg, Germany) setting the excitation wavelength at 485 nm and emission wavelength at 520 nm. The baseline fluorescence was recorded for 3 cycles before the addition of the vehicle, compound at different concentrations, and the antagonist, 10 μM AMTB for TRPM8 and Ruthenium red for TRPV1. Fluorescence intensity was recorded during 7 more cycles and agonist 100 μM menthol for TRPM8 or 10 μM capsaicin for TRPV1 was added. Fluorescence intensity was recorded during 10 more cycles.
Data analysis: The Z-factor was calculated in each assay using the following equation: […]. […] A decrease in menthol signal was expressed as a percentage of inhibition (%). All data are expressed as the mean ± standard deviation (SD). Data are expressed as the concentration exerting a half-maximal inhibition of agonist-induced (Ca^2+)^i elevation (IC50), which was calculated again using GraphPad Prism® software (GraphPad Prism 5, Graphpad Software, San Diego, CA, USA). The equation used was Y = Bottom + (Top − Bottom)/(1 + 10^((LogEC50-X) ^× HillSlope)), with the restriction of the minimum (Bottom = 0). All determinations were performed in triplicate (n = 3) in 3 independent experiments (n= 3).

Test [3] has as its system oxaliplatin-induced cold allodynia. Kind of test: Oxaliplatin-induced cold hypersensitivity, acetone drop test. It is filed as in vivo, mice. The settings on record: for effect on oxaliplatin-induced cold hypersensitivity: acetone drop test. An excerpt: TRPM8 antagonism is deeply related to analgesic in vivo effects and has been proposed as a suitable pharmacological strategy for the treatment of chronic pain, migraine, and painful syndromes. TRPM8 antagonists are particularly known to counteract the chemotherapy-induced neuropathic pain evoked by oxaliplatin [24, 27, 28, 29]. For these reasons we challenged compound 14 (BB 0322703) in vivo using the oxaliplatin-induced cold hypersensitivity assay. […]. […] In particular, a correspondence between the in vitro potency and the effective in vivo dose is typical for TRPM8 modulators in the oxaliplatin-induced neuropathic pain model. Extremely in-vitro potent compounds are effective also at lower doses […]. When in vitro potency is reduced, as also in the present case, in vivo efficacy decreases correspondingly. […] This is also the case of compound 14, which for these reasons could be considered a promising hit-compound for the development of new chemotypes as TRPM8 antagonists and a pharmacological tool for the treatment of neuropathic pain.
[…]. Care was taken to minimize the number of animals used and the pain and stress they experienced. All experimental procedures were approved by the Animal Care and Use Committees of Universidad Miguel Hernández and the regional government and were conducted according to the ethical principles of the International Association for the Study of Pain (IASP) for the evaluation of pain in conscious animals, the European Parliament and the Council Directive (2010/63/EU) and the Spanish law (RD 53/2013). Housing conditions were maintained at 21 ± 1 °C and 55 ± 15% relative humidity in a controlled light/dark cycle (light on between 8:00 a.m. and 8:00 p.m.). Animals had free access to food and water except during the habituation or the evaluation of nociceptive sensitivity. All parts of the study concerning animal care were performed under veterinary control.
Compound 14 (BB 0322703) was dissolved in 2.5% dimethyl sulfoxide (Merck, Darmstadt, Germany) and 2.5% cremophor EL (Merck) diluted in saline. […]
Oxaliplatin-induced neuropathic pain was induced by repeated oxaliplatin administration (Cat. No. 2623, Tocris, Bristol, UK). […] Nociceptive sensitivity was assessed before oxaliplatin treatment and 3 days after the last oxaliplatin administration.
Cold chemical thermal sensitivity was assessed using the acetone drop method as previously described. […] The responses were measured for 1 min with a digital stopwatch. For each measurement, the paw was sampled three times and the mean was calculated. […]
Behavioral data were analyzed with a repeated-measures ANOVA followed by a post-hoc Tukey test (GraphPad Prism 7.04, GraphPad Software Inc.). p-values lower than 0.05 were considered statistically significant.

Test [4] addresses T3, rTRPM8 (Rattus norvegicus, UniProt Q8R455).
T3 construct: expressed in transfected cells
The experiment in a line: Whole-cell patch-clamp on HEK-rTRPM8 cells, menthol-evoked currents. It is filed as cell-based. As to the method:
Dose-response curves were then recorded to evaluate the compound relative potencies.
Whole-cell patch-clamp recordings from HEK-rTRPM8 cells were carried out 2 days after seeding on 12-mm Ø glass coverslips treated with poly-L-lysine solution (Sigma Aldrich, Madrid, Spain); the intracellular pipette solution contained (in mM) 150 NaCl, 5 EGTA, 3 MgCl2, and 10 HEPES, adjusted to pH 7.2 with NaOH, and the extracellular solution contained (in mM) 150 NaCl, 6 CsCl, 1.5 CaCl2, 1 MgCl2, 10 D-glucose and 10 HEPES, adjusted to pH 7.4 with NaOH. The TRPM8 activity was measured by the application of two pulses of 100 μM menthol in a time interval of 2 min and 30-s perfusion of the different compound concentrations before the second menthol pulse.
The series resistance was <10 MΩ and to minimize voltage errors was compensated to 60–80%. All measurements were performed at 24–25 °C. Cell capacitance was measured and used to estimate the current density (J, pA/pF).
For the whole-cell patch-clamp experiments, results are expressed as the percentage of the remaining activation of the TRPM8 channel. This is calculated by normalizing the ratio (p2/p1) of testing conditions to the ratio (p2/p1) of the control condition. The analysis of the data was performed by GraphPad 6.0, the ordinary one-way ANOVA analysis followed by the post hoc Bonferroni test established multiple comparisons, and the ROUT method (Q = 10%) identified data outliers. […] Paired or unpaired Student’s t-tests were also used for data comparison between two groups. All data are expressed as the mean ± standard error of the mean (SEM) (n = 12–15).

Each structure is given as a SMILES string. Several values for one entry are separate records, joined by “and”; a condition that tells them apart may be missing. Equal values may be shown once. Read-outs that look alike come from different tables or passages of the source.

T3 sequence (Q8R455 whole entry): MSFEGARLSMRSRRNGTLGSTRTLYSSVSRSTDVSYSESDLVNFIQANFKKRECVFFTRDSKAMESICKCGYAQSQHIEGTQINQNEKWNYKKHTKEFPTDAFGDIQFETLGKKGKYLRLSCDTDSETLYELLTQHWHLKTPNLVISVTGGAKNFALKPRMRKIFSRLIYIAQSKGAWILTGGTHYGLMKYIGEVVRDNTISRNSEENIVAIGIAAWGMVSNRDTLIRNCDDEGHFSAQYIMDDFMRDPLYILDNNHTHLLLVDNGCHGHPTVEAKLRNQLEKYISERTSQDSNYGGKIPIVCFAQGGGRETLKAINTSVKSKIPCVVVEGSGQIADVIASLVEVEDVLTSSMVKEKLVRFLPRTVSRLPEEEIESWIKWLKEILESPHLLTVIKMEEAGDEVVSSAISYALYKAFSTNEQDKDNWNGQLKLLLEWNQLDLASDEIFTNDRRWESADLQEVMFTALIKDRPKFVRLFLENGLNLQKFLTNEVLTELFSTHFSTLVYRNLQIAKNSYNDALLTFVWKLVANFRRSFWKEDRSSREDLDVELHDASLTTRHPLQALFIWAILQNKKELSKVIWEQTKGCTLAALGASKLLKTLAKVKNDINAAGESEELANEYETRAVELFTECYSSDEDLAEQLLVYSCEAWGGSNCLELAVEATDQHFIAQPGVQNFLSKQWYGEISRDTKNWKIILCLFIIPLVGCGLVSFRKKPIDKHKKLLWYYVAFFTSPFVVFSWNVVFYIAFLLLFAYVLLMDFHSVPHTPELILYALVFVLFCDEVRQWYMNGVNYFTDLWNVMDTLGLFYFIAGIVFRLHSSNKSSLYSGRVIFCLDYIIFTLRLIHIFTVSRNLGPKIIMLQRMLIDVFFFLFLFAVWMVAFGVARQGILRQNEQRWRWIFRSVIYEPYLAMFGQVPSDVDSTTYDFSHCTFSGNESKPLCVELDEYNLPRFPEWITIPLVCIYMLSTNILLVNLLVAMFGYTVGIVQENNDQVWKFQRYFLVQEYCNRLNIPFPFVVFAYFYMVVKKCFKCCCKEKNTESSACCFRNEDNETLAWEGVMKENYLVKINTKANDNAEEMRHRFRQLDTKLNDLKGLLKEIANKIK
T2 sequence (Q8R455 whole entry, canonical isoform): as the sequence (Q8R455 whole entry) above
T1 sequence (Q8NER1 whole entry): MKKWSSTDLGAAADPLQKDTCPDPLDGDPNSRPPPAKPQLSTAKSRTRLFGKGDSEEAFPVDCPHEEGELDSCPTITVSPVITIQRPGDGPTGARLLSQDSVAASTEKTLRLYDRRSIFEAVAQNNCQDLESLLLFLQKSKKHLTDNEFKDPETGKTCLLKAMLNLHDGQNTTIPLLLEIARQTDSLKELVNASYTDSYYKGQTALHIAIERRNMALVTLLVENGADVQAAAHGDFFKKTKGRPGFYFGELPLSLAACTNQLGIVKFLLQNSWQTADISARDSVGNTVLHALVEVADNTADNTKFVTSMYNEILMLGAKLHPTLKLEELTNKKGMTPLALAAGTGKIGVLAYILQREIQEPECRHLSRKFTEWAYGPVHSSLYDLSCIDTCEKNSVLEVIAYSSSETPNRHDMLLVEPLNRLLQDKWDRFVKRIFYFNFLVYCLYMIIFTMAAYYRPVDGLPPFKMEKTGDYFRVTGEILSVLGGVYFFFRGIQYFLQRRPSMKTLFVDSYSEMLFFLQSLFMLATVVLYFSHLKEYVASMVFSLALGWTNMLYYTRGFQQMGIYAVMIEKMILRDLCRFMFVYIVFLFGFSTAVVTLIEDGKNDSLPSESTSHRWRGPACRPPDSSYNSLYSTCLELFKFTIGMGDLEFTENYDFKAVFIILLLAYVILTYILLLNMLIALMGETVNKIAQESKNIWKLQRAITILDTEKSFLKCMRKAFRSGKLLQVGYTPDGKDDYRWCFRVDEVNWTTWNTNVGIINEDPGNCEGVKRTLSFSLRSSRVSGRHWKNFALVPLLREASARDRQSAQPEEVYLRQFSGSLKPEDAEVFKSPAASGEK

For `COC(=O)C1=C(Nc2ccccc2F)SC(=Cc2ccccc2OCC#CC(C)(O)c2ccccn2)C1=O` (centres unmarked) [Compound 19], the concentration giving a half-maximal response (EC50) in test [1] (agonist, normalized to capsaicine 10 μM = 100%, brackets 95% confidence interval, read-out: EC50 TRPV1 activation) was 1.34 to 1.68 µM and 1.34 µM. The “Hill Slope, TRPV1 activation” value in test [1] (fit of dose-response curve, Bottom = 0) was 0.67. For the same compound, in test [2], half-maximal inhibition (IC50) was put at 5.52 ± 1.45 µM, the “potency compared with AMTB” value is “comparable potencies to AMTB” and the Efficacy was 90%.
Take `Cc1nn(C)c(Oc2ccc(Cl)cc2)c1-c1noc(C)c1C(=O)Nc1ccc(F)cc1` [Compound 5]: in test [2], 11.1 ± 1.32 µM corresponded to half-maximal inhibition (IC50), the “potency compared with AMTB” value is “comparable potencies to AMTB” and the Efficacy stood at 95%.
As to `Cc1cccc(COc2ccccc2C(=O)N(CCCN)Cc2cccs2)c1` [AMTB, reference compound], the half-maximal inhibitory concentration (IC50) in test [2] (100 μM menthol, HEK293 rTRPM8, mean ± SD of at least three independent measurements, read-out: IC50) was found to be 7.15 ± 1.24 µM. In addition, the Efficacy in test [2] was 100%.
Turning to `CCOC(=O)C(C)Nc1ccccc1C(=O)NC(C)c1ccccc1` [Compound 14, Ethyl (R)-N-[2-{[(1-Phenylethyl)amino]carbonyl}phenyl]-2-aminopropionic acid], the “efficacy in cold allodinya model” value in test [3] (30 μM dose (abstract)) is on record as “showing pharmacological efficacy”. The “effect on oxaliplatin-induced cold hypersensitivity” value was “did not show significant modification of their nociceptive sensitivity” in test [3] (mice, intraplantar 10 µg) and “significant inhibition of this cold hypersensitivity” in test [3] (mice, intraplantar dose of 30 µg, p < 0.05 vs. Oxaliplatin). In addition, the “duration of inhibition of cold hypersensitivity” value in test [3] (mice, intraplantar dose of 30 µg) is reported as “at least 1 h”. Also, the IC50 was 1.25 ± 0.26 µM in test [4] and 0.25 ± 0.15 µM in test [2]. Further, the “effect on TRPM8 menthol-evoked currents” value in test [4] (compound at 10 μM, 100 μM menthol) was “abolishing the TRPM8 menthol-evoked currents”. For the same compound, in test [4] (fit of dose-response curve, Top = 100), the “Hill slope, patch-clamp inhibition” value is on record as −1.23. For the same compound, in test [2] (calcium fluorometric IC50 compared with reference AMTB), the “IC50/potency fold difference versus AMTB” value is “about 30 fold”. Also, in test [2], the Efficacy came out at 100%.
With `NCC1CCCN(CCc2cccc(F)c2)C1` (centres unmarked) [Compound 1], in test [2], the IC50 came to 10.2 ± 1.31 µM, the “potency compared with AMTB” value is “comparable potencies to AMTB” and the Efficacy was determined as 85%.

(Values after PMC8877448, “In Vitro and In Vivo Pharmacological Characterization of a Novel TRPM8 Inhibitor Chemotype Identified by Small-Scale Preclinical Screening” (International Journal of Molecular Sciences, 2022).)
